Reference: patent publication EP1680415B1, “PYRROLIDINYL UREA DERIVATIVES AS ANGIOGENESIS INHIBITORS” (ABBOTT LABORATORIES, priority 2003, dated 2005)

Test system: HMVEC
Assay: human microvascular endothelial (HMVEC) migration assay
Assay type: cell-based
Conditions: Homo sapiens; Inhibition of HMVEC migration; 0.1 nM; activators 15 ng/mL bFGF/VEGF; 4 hours at 37 °C; compared to a positive control
Procedure, shortened: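 Dermal (single-donor) and neonatal microvascular endothelial cells, serum-starved overnight in DME/0.01% BSA, attached 2 h at 37 °C to gelatin-coated 5 µm membranes in a modified Boyden chamber. Test substances with 15 ng/mL bFGF/VEGF added; migration over 4 h at 37 °C. Stained migrated cells counted per high-power field, background subtracted, or given as % inhibition versus positive control.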

SMILES	inhibition at 0.0001 µM [%]
Cc1ccc(C(=O)N2CC[C@@H](NC(=O)NCC3CCOC3)C2)cn1 (stereo partly drawn) [Example 14, N-{(3R)-1-[(6-methyl-3-pyridinyl)carbonyl]-3-pyrrolidinyl}-N'-(tetrahydro-3-furanylmethyl)urea]	57
Cc1ccc(C(=O)N2CC[C@@H](NC(=O)N(Cc3ccccc3)Cc3ccccc3)C2)c(Cl)n1 [Example 43, N,N-dibenzyl-N'-{(3R)-1-[(2-chloro-6-methylpyridin-3-yl)carbonyl]pyrrolidin-3-yl}urea]	73
CCCCN(CCCC)C(=O)N[C@@H]1CCN(C(=O)c2ccc(C)nc2)C1 [Example 66, N,N-dibutyl-N'-{(3R)-1-[(6-methylpyridin-3-yl)carbonyl]pyrrolidin-3-yl} urea]	84
Cc1ccc(C(=O)N2CC[C@@H](NC(=O)N[C@@H](CO)CC(C)C)C2)cn1 [Example 24, N-[(1R)-1-(hydroxymethyl)-3-methylbutyl]-N'-{(3R)-1-[(6-methyl-3-pyridinyl)carbonyl]-3-pyrrolidinyl}urea]	70
